The experiment addresses T1, Glutamate carboxypeptidase 2 [44-750] (Homo sapiens, UniProt Q04609).
T1 construct: 44-750
Nature of the experiment: Determination of Inhibition Concentration Values (IC50). The settings on record: pH 7.4; 37 °C. How it is done:
The inhibition concentration values of GCPII were determined using the radioenzymatic assay with [3H] NAAG (radiolabeled on the terminal glutamate). The enzyme was preincubated in the presence of increasing concentrations of inhibitors in reaction buffer. The reaction was initiated by adding the substrate to the reaction mixtures. After 20 min, the reaction was terminated, and the glutamate was separated from the reaction mixture by ion-exchange chromatography and quantified by liquid scintillation. Duplicate reactions were carried out for each experimental point. The IC50 values were calculated from plots of Vi/V0 (ratio of individual reaction rates to the rate of an uninhibited reaction) versus inhibitor concentration using the GraFit program (version 5.0.4, Erithacus Software Limited).

SMILES strings stand for the structures.

T1 sequence (Q04609 44-750): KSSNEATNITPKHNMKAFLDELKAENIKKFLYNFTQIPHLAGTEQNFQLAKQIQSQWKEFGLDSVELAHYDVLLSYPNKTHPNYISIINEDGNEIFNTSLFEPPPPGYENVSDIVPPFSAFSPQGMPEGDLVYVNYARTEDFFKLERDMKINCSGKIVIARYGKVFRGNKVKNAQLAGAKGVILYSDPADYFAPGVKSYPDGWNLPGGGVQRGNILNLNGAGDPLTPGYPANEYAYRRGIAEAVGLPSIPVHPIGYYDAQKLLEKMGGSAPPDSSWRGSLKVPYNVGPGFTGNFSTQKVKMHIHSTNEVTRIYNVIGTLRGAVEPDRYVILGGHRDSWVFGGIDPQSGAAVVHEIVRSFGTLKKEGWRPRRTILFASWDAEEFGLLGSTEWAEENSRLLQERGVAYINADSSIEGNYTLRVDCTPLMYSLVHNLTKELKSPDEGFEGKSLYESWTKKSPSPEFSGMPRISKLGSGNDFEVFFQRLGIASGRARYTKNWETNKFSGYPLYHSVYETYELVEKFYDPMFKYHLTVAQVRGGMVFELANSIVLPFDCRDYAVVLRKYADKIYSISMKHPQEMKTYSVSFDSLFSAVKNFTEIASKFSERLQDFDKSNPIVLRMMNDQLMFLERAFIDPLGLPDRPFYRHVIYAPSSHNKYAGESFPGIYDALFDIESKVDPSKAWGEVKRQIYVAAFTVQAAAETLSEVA

For the compound `Cc1onc(O)c1C[C@H](N)C(=O)O`, the IC50 (commonly the point on the concentration scale where inhibition reaches its midpoint) was greater than 10 mM.

These data come from BindingDB's records for doi:10.1021/jm070133w (Nci-Fcrdc, 2007).
